≈ marks a conversion by molar mass, not a printed value. Where two headings read alike, the source gives them in different places. Where a SMILES comes first, the peptide text is derived from it. [ ]: non-standard residue; d: D form. dDab = NCC[C@@H](N)C(=O)O; Orn = NCCC[C@H](N)C(=O)O; Dab = NCC[C@H](N)C(=O)O
Legend:
[1] = tested on: Pseudomonas aeruginosa isolates from respiratory samples of people with cystic fibrosis; assay: Planktonic susceptibility (MIC) of CF isolates; format: cell-based
Text: (§1) To perform biofilm tests with the Calgary device, fifty-three Pseudomonas aeruginosa isolates from respiratory samples of people with cystic fibrosis were selected among the 414 Pseudomonas aeruginosa of the iABC-collection (Ekkelenkamp M B et al., Antimicrob. Agents Chemother. 2019, 64, 1-7). A representative number of isolates from Northern Ireland, Spain, the Netherlands, and Australia were chosen, including different morphotyes: 18 smooth, 11 mucoid, 11 rough, 10 metallic, and 3 small colony variants. As control strains, the PAO (most commonly used strain for research on this ubiquitous and metabolically versatile opportunistic pathogen, Klockgether J et al., Journal of Bacteriology 2010, 192, 1113-1121) and its hypermutator derivative, PAO mutS strains were used (Oliver A et al., Antimicrob. Agents Chemother. 2004, 48, 4226-33).

[2] = tested on: Pseudomonas aeruginosa isolates from respiratory samples of people with cystic fibrosis growing in biofilms; format: cell-based
Text: (§2) Two types of assays, an open and a closed system, were used to evaluate the in vitro activity on biofilms. The closed or static system based on the Calgary device (Diez-Aguilar M et al., Antimicrob Agents Chemother. 2018, 62, e01650-17, doi: 10.1128/AAC.01650-17, Moskowitz S M et al., J. Clin. Microbiol. 2004, 42, 1915-1922) analyzes biofilm formation in the wells of microtiter plates and is suitable for high-throughput analysis, obtaining pharmacodynamics (PD) parameters, while the open or dynamic system using the BioFlux device (Benoit M R et al., Appl. Environ. Microbiol. 2010, 76, 4136-4142) better resembles the in vivo conditions.
as §1
(§3) This assay was performed as previously described but with minimal variations (Benoit M R et al., Appl. Environ. Microbiol. 2010, 76, 4136-4142) (FIG. 3). Briefly, a 0.5 McFarland culture was transferred to a flat-bottom 96-well microtiter plate (Nalge Nunc International, Rochester, New York, USA). Bacterial biofilm was formed around the pegs of a modified polystyrene microtiter lid. This lid with pegs was immersed into a growth plate and incubated for 20 h at 37° C. After rinsing the pegs 3 times in saline solution they were placed onto the antimicrobial in BBL™ Mueller-Hinton II cation-adjusted broth (MHB) (Becton, Dickinson and Company, Sparks, MD, USA) and incubated for 20 h at 37° C. […] After this incubation, the biofilm was recovered centrifuging (800 RPM/10 min) the peg lid in an antibiotic-free MHB filled-microtiter plate. The minimal biofilm inhibitory concentration (MBIC) was calculated after measuring the optical density (OD) (450 nm) before and after 6-hour incubation. Biofilm growth was defined as a mean OD difference of ≥0.05. […] The minimal biofilm eradication concentration (MBEC) was defined as the lowest concentration that prevents visible growth in the biofilm recovery medium after 18 h of the microtiter plate incubation (Ceri H et al., J. Clin. Microbiol. 1999, 37, 1771; Macià M D et al., Enferm. Infecc. Microbiol. Clin. 2018, 36, 375-381).
MBIC and the MBEC are used to determine the anti-biofilm antibiotic in vitro efficacy. MBIC is the lowest concentration at which there is no time-dependent increase in the mean number of biofilm viable cells comparing an early with a later exposure time, while the MBEC indicates the eradication (partly or completely) of biofilm viable cells (Thieme L et al., Biol. Proced. Online 2019, 21, 1-5).

PA34 (smooth phenotype) [3] = assay: microbe, parasite or virus in culture; format: cell-based, Pseudomonas aeruginosa
Procedure: (§4) Two CF isolates, PA34 (smooth phenotype) and PA40 (mucoid phenotype), and the 2 reference strains PAO and PAO mutS were tested with the BioFlux device. None of the clinical strains were hypermutators.
(§5) Planktonic and biofilm susceptibility of the strains established in the Calgary device and used in the BioFlux device are described in Table 12.

PA40 (mucoid phenotype) [4] = assay: microbe, parasite or virus in culture; format: cell-based, Pseudomonas aeruginosa
Procedure: as §4, §5

PAO [5] = assay: microbe, parasite or virus in culture; format: cell-based, Pseudomonas aeruginosa
Procedure: as §4, §5

PAO mutS [6] = assay: Planktonic susceptibility (MIC), PAO mutS; format: cell-based, Pseudomonas aeruginosa; conditions: Pseudomonas aeruginosa
Procedure: as §4, §5

PA34 (smooth phenotype) [7] = format: cell-based, Pseudomonas aeruginosa
Procedure: as §4, §3, §5

PA40 (mucoid phenotype) [8] = format: cell-based, Pseudomonas aeruginosa
Procedure: as §4, §3, §5

PAO mutS [9] = format: cell-based, Pseudomonas aeruginosa
Procedure: as §4, §3, §5

PAO [10] = format: cell-based, Pseudomonas aeruginosa
Procedure: as §4, §3, §5

[11] = 28-day dose inhalation study in CD-1 mice; format: in vivo
Procedure: (§6) In the 28-day dose inhalation study in CD-1 mice (20-minute snout only exposure), the mean estimated achieved doses of 0.8, 3.5 and 7.2 mg/kg/day murepavadin free base were administered. […] There were no other findings considered test item related.

[12] = design: species or system cynomolgus monkeys; conditions: cynomolgus monkey, in vivo
Procedure: as §6

[13] = tested on: clinical Pseudomonas aeruginosa isolates; assay: Mouse lung infection model (PK-PD); format: in vivo
[14] = tested on: PAO, PAO mutS, PA40, PA34; assay: Planktonic susceptibility of all strains used in the BioFlux device; format: cell-based, Pseudomonas aeruginosa; conditions: all tested strains susceptible
Procedure: as §4, §5

[15] = tested on: Pseudomonas aeruginosa biofilms (PAO, PAO mutS, PA34, PA40); assay: Biofilm assays performed by the BioFlux microfluidic open system; format: cell-based; conditions: both open and closed biofilm-testing systems
Text: as §2, with “conditions. […]” for “conditions.”
Several biofilms were simultaneously developed in a 48 wells plate in the BioFlux 200 system, following an adapted protocol from Benoit M R et al. (Appl. Environ. Microbiol. 2010, 76, 4136-4142). […] Biofilm images were taken using a Nikon Eclipse Ti microscope (Nikon, Tokyo, Japan) and analyzed with the ImageJ program (Java-based image processing program, National Institute of Health, Bethesda, Maryland, USA and Laboratory for Optical and Computational Instrumentation, University of Wisconsin, Wisconsin, USA). The mean percentage of intensity of red fluorescence corresponding to dead cells within the biofilm is represented in a bar chart as black bar (FIG. 4). […]

[16] = biofilm, Calgary device, CF isolates

## C[C@H]1[C@H](NC(=O)/C(=N\OC(C)(C)C(=O)O)c2csc(N)n2)C(=O)N1S(=O)(=O)O [aztreonam]
[1]
  MIC range: 0.5 to 512 µg/mL
[1]; Pseudomonas aeruginosa, read-out: MIC50
  MIC50: 4 µg/mL (≈ 9.19 µM)
[1]; Pseudomonas aeruginosa, read-out: MIC90
  MIC90: 256 µg/mL (≈ 588 µM)
[2]; [16]
  MBEC50: 512/>512 mg/L
  MBEC90: 512/>512 mg/L
  MBIC50: 32 mg/L
  MBIC90: > 512 mg/L
PA34 (smooth phenotype) [3]; Pseudomonas aeruginosa, PA34, read-out: MIC
  MIC: 0.5 µg/mL (≈ 1.15 µM)
PA40 (mucoid phenotype) [4]; Pseudomonas aeruginosa, PA40, read-out: MIC
  MIC: 16 µg/mL (≈ 36.7 µM)
PAO [5]; Pseudomonas aeruginosa, PAO, read-out: MIC
  MIC: 4 µg/mL (≈ 9.19 µM)
PAO mutS [6]
  MIC: 64 µg/mL (≈ 147 µM)
PA34 (smooth phenotype) [7]; PA34
  MBEC: 256 mg/L
  MBIC: 8 mg/L
PA40 (mucoid phenotype) [8]; PA40
  MBEC: >256 mg/L
  MBIC: 32 mg/L
PAO mutS [9]
  MBEC: >256 mg/L
  MBIC: >256 mg/L
PAO [10]; PAO
  MBEC: >256 mg/L
  MBIC: >256 mg/L

## CC[C@H](C)[C@@H]1NC(=O)[C@H](Cc2c[nH]c3ccccc23)NC(=O)[C@H]([C@@H](C)O)NC(=O)[C@@H]2CCCN2C(=O)[C@H]2CCCN2C(=O)[C@H](CO)NC(=O)[C@H](C)NC(=O)[C@H](CCN)NC(=O)[C@H](CCN)NC(=O)[C@H](Cc2c[nH]c3ccccc23)NC(=O)[C@H](CCN)NC(=O)[C@@H](CCN)NC(=O)[C@H](CCCN)NC(=O)[C@H](CCN)NC1=O [murepavadin, cyclo(-Thr-Trp-Ile-Dab-Orn-^DDab-Dab-Trp-Dab-Dab-Ala-Ser-^DPro-Pro-)] (cyclo(TWI[Dab][Orn][dDab][Dab]W[Dab][Dab]AS[dP]P); ring closure inferred)
[11]; 28-day inhalation, 0.8, 3.5 and 7.2 mg/kg/day, adverse pathology in the upper respiratory tract
  No Observed Adverse Effect Level (NOAEL): no No Observed Adverse Effect Level (NOAEL) could be established
[11]; 28-day inhalation, 20-minute snout only exposure, up to 7.2 mg/kg/day murepavadin free base
  systemic toxicity: no evidence of systemic toxicity
[12]
  microscopic test item related findings at the tracheal bifurcation: not considered adverse
[13]; IT doses of 0.075-0.625 mg/kg, three out of four clinical isolates
  reduction of bacterial burden: > 2 log10
[13]; inhalation administration
  achieved dose required to attain the ELF AUC exposure: 0.18 mg/kg
[13]; intra-tracheal (i.t.) administration
  achieved dose required to attain the ELF AUC exposure: 0.10 mg/kg
[13]; subcutaneous injection, 15 clinical Pseudomonas aeruginosa isolates
  mean AUC exposure in ELF sufficient to achieve a 1-login reduction of bacterial burden: 12.23 h·mg/L
[1]
  MIC50: ≤ 0.5 µg/mL
  MIC90: 1 µg/mL (≈ 0.644 µM)
  MIC range: ≤0.5 to 32 µg/mL
[2]
  MBEC50: 16 mg/L
[2]; [16]
  MBEC90: 64 mg/L
  MBIC50: 4 mg/L
  MBIC90: 32 mg/L
  MBIC range: ≤0.5 to 64 mg/L
PA34 (smooth phenotype) [3]
  MIC: 0.06 µg/mL (≈ 0.0386 µM)
PA40 (mucoid phenotype) [4]
  MIC: 0.06 µg/mL (≈ 0.0386 µM)
PAO [5]
  MIC: 0.06 µg/mL (≈ 0.0386 µM)
PA34 (smooth phenotype) [7]
  MBEC: 4 mg/L
  MBIC: 2 mg/L
PA40 (mucoid phenotype) [8]
  MBEC: 8 mg/L
  MBIC: 2 mg/L
PAO mutS [9]
  MBEC: 256 mg/L
  MBIC: 32 mg/L
PAO [10]
  MBEC: 8 mg/L
  MBIC: 4 mg/L
[14]
  MIC: 0.12 µg/mL (≈ 0.0772 µM)
[15]
  activity against biofilms of Pseudomonas aeruginosa: displayed activity

From patent publication US20240100121A1, “COMPOSITIONS OF A BETA-HAIRPIN PEPTIDOMIMETIC AND AEROSOL DOSAGE FORMS THEREOF” (priority 2020, published 2024)
